# Measured values as given in ChEMBL document CHEMBL1127095, “Pharmacology of (2R, 4R, 5S)-2-amino-4,5-(1,2-cyclohexyl)-7-phosphonoheptanoic acid (NPC 17742); a selective, systemically active, competitive NMDA antagonist” (Bioorg Med Chem Lett, 1993).
# pIC50: −log10 of the molar value.
# Key:
# Mus musculus [1] = assay: Tested for the ability to inhibit the NMDA induced (250mg/Kg, intraperitoneally) seizures in male CF-1 mice given 15 min prior to NMDA (intracerebroventricularly); type: functional
# Mus musculus [2] = assay: Tested for the ability to inhibit the NMDA induced (250mg/Kg, intraperitoneal) seizures in male CF-1 mice when given 30 min prior to NMDA (intraperitoneal); type: functional; settings: ip
# Glutamate NMDA receptor = assay: Tested for the ability to inhibit the specific binding of [3H]-CGS- 19755 to NMDA recognition sites on rat brain membranes; type: cell membranes, Membrane
# Rattus norvegicus [3] = assay: Tested for the paradigm of drug-discrimination assay in rats by intraperitoneal administration.; type: functional; settings: ip
# Rattus norvegicus [4] = assay: Tested for the paradigm of drug-discrimination assay (NPC 17742 (4 mg/Kg) from saline) in rats by intraperitoneal administration; type: functional; settings: ip
# Mus musculus [5] = organism: Mus musculus; assay: Tested for the ability to inhibit the pentylenetetrazole seizures in mice; type: functional
# Rattus norvegicus [6] = assay: Tested for the paradigm of drug-discrimination assay in rat by intraperitoneal administration; type: functional; settings: ip
# Mus musculus [7] = assay: Tested for the ability to inhibit the […] induced seizures (ip administration); type: functional
# Mus musculus [8] = organism: Mus musculus; assay: Tested for the ability to inhibit the maximal electroshock induced seizures in mice; type: functional
# Rattus norvegicus [9] = assay: Tested for the paradigm of drug-discrimination assay (NPC 17742 (4 mg/Kg; i.p.) from saline) in rat by intraperitoneal administration; type: functional; settings: ip
# [10] = Tested for the lethal dose by intraperitoneal administration; type: ADME; settings: mouse, ip
# Rattus norvegicus [11] = assay: Tested for the paradigm of drug-discrimination assay in rats by intraperitoneal administration; type: functional; settings: ip
# Rodentia sp. = assay: Tested for the ability to inhibit the cocaine-induced seizures in rodents; type: functional
SMILES,ED50 (Mus musculus [1]) [nmol],ED50 (Mus musculus [2]) [mg/kg],pIC50 (Glutamate NMDA receptor),also measured
N[C@@H](C[C@@H]1CCCC[C@@H]1CCP(=O)(O)O)C(=O)O,8.5,32,5.62,–
N[C@H](C[C@@H]1CCCC[C@@H]1CCP(=O)(O)O)C(=O)O,8.5,33,5.25,–
N[C@@H](C[C@H]1CCCC[C@H]1CCP(=O)(O)O)C(=O)O,44.6,40,5.59,–
NC(CC1CCCCC1CCP(=O)(O)O)C(=O)O (stereo not given),–,–,–,ED50 (Rattus norvegicus [3]): 18.1 mg/kg; ED50 (Rattus norvegicus [4]): 8.9 mg/kg
O=C(O)C1CN(CCCP(=O)(O)O)CCN1 (racemic),1.2,2.2,6.72,–
"N[C@H](C[C@H]1CCCCC1CCP(=O)(O)O)C(=O)O (single isomer, unassigned)",0.28,1.05,6.57,ED50 (Mus musculus [5]): 4.5 mg/kg; ED50 (Rattus norvegicus [6]): 2.1 mg/kg; ED50 (Mus musculus [7]): 4.5 mg/kg; ED50 (Mus musculus [8]): 13 mg/kg; ED50 (Rattus norvegicus [9]): 1.9 mg/kg; LD50 [10]: > 1000 mg/kg
"O=C(O)[C@@H]1C[C@H](CP(=O)(O)O)CCN1 (single isomer, unassigned) [SELFOTEL]",0.19,2.6,7.06,ED50 (Rattus norvegicus [11]): 2.3 mg/kg
NC(C[C@@H]1CCCC[C@H]1CCP(=O)(O)O)C(=O)O (stereo in doubt; (+)),49,–,4.55,–
NC(C[C@@H]1CCCC[C@H]1CCP(=O)(O)O)C(=O)O (stereo in doubt; (-)),20,> 100,5.39,–
CC(=CC(N)C(=O)O)CP(=O)(O)O (stereo not given) [CGP-37849],–,–,–,ED50 (Rattus norvegicus [3]): 0.8 mg/kg; ED50 (Rodentia sp.): 0.1 mg/kg
O=C(O)[C@H]1CN(C/C=C/P(=O)(O)O)CCN1 [MIDAFOTEL],–,–,–,ED50 (Rattus norvegicus [3]): 0.8 mg/kg
